Measured values as given in ChEMBL document CHEMBL1201861, “Genomics of Drug Sensitity in Cancer screening data, Wellcome Trust Sanger Institute”.
pIC50: −log10 of the molar value.

Columns and labels:
Test in all cases: cells
Assay type in all cases: functional, cell-based
Conditions in all cases: Homo sapiens
BV-173 = test system: BV-173
Description: SANGER: Inhibition of human BV-173 cell growth in a cell viability assay.

COLO-829 = test system: COLO-829
Description: SANGER: Inhibition of human COLO-829 cell growth in a cell viability assay.

SW872 = test system: SW872;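 further: growth inhibition of SW872 cells, read out by a viability assay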
Description: SANGER: Inhibition of human SW872 cell growth in a cell viability assay.

NOMO-1 = test system: NOMO-1;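 further: growth inhibition of human NOMO-1 cells measured by a cell viability assay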
Description: SANGER: Inhibition of human NOMO-1 cell growth in a cell viability assay.

TGBC1TKB = test system: TGBC1TKB;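 further: growth inhibition of TGBC1TKB cells, read out by a cell viability assay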
Description: SANGER: Inhibition of human TGBC1TKB cell growth in a cell viability assay.

ES5 = test system: ES5;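 further: growth inhibition of human ES5 cells, read out by a cell viability assay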
Description: SANGER: Inhibition of human ES5 cell growth in a cell viability assay.

A3-KAW = test system: A3-KAW;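 further: growth inhibition of human A3-KAW cells, read out with a cell viability assay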
Description: SANGER: Inhibition of human A3-KAW cell growth in a cell viability assay.

NOS-1 = test system: NOS-1;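 further: growth inhibition of the human NOS-1 cell line, read out with a cell viability assay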
Description: SANGER: Inhibition of human NOS-1 cell growth in a cell viability assay.

CTB-1 = test system: CTB-1
Description: SANGER: Inhibition of human CTB-1 cell growth in a cell viability assay.

SW684 = test system: SW684;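 further: growth inhibition of human SW684 cells, measured by a cell viability assay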
Description: SANGER: Inhibition of human SW684 cell growth in a cell viability assay.

SW 954 = test system: SW 954;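 further: growth inhibition of SW954 human cancer cells, read out as cell viability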
Description: SANGER: Inhibition of human SW954 cell growth in a cell viability assay.

NCI-H69 = test system: NCI-H69;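 further: growth inhibition of the cell line, read out with a cell viability assay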
Description: SANGER: Inhibition of human NCI-H69 cell growth in a cell viability assay.

NB6 = test system: NB6;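 further: growth inhibition of NB6 cells, read out by a cell viability assay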
Description: SANGER: Inhibition of human NB6 cell growth in a cell viability assay.

TE-8 = test system: TE-8;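 further: growth inhibition of TE-8 cells, measured with a cell viability readout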
Description: SANGER: Inhibition of human TE-8 cell growth in a cell viability assay.

MFM-223 = test system: MFM-223
Description: SANGER: Inhibition of human MFM-223 cell growth in a cell viability assay.

K562 = test system: K562
Description: SANGER: Inhibition of human K-562 cell growth in a cell viability assay.

BE-13 = test system: BE-13;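 further: growth inhibition of human BE-13 cells, measured with a cell viability assay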
Description: SANGER: Inhibition of human BE-13 cell growth in a cell viability assay.

D-502MG = test system: D-502MG
Description: SANGER: Inhibition of human D-502MG cell growth in a cell viability assay.

HT = test system: HT
Description: SANGER: Inhibition of human HT cell growth in a cell viability assay.

LC-2-ad = test system: LC-2-ad;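 further: growth inhibition of human LC-2-ad cells, read out with a cell viability assay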
Description: SANGER: Inhibition of human LC-2-ad cell growth in a cell viability assay.

DMS-79 = test system: DMS-79;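 further: growth inhibition measured with a cell viability assay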
Description: SANGER: Inhibition of human DMS-79 cell growth in a cell viability assay.

TE-9 = test system: TE-9;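 further: cell growth inhibition, measured with a cell viability readout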
Description: SANGER: Inhibition of human TE-9 cell growth in a cell viability assay.

A4-Fuk = test system: A4-Fuk;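 further: growth inhibition of A4-Fuk cells, read out by a cell viability assay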
Description: SANGER: Inhibition of human A4-Fuk cell growth in a cell viability assay.

KG-1 = test system: KG-1;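 further: growth inhibition of KG-1 cells, read out by a cell viability assay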
Description: SANGER: Inhibition of human KG-1 cell growth in a cell viability assay.

VA-ES-BJ = test system: VA-ES-BJ;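 further: growth inhibition of the VA-ES-BJ cell line, read out by a cell viability assay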
Description: SANGER: Inhibition of human VA-ES-BJ cell growth in a cell viability assay.

NCI-H1092 = test system: NCI-H1092;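 further: cell growth inhibition measured with a cell viability assay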
Description: SANGER: Inhibition of human NCI-H1092 cell growth in a cell viability assay.

HAL-01 = test system: HAL-01;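 further: growth inhibition of human HAL-01 cells, read out with a cell viability assay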
Description: SANGER: Inhibition of human HAL-01 cell growth in a cell viability assay.

LB2241-RCC = test system: LB2241-RCC;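 further: cell viability assay measuring how strongly the cultured human renal carcinoma line is prevented from growing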
Description: SANGER: Inhibition of human LB2241-RCC cell growth in a cell viability assay.

EW-3 = test system: EW-3;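 further: cell viability assay read-out, IC50 reflects inhibition of growth of the EW-3 cells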
Description: SANGER: Inhibition of human EW-3 cell growth in a cell viability assay.

LOX IMVI = test system: LOX IMVI
Description: SANGER: Inhibition of human LOXIMVI cell growth in a cell viability assay.

no-10 = test system: no-10;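 further: growth inhibition of no-10 cells, read out with a cell viability assay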
Description: SANGER: Inhibition of human no-10 cell growth in a cell viability assay.

LU-139 = test system: LU-139
Description: SANGER: Inhibition of human LU-139 cell growth in a cell viability assay.

OS-RC-2 = test system: OS-RC-2;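 further: growth inhibition of human OS-RC-2 cells, measured by a cell viability assay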
Description: SANGER: Inhibition of human OS-RC-2 cell growth in a cell viability assay.

DU-4475 = test system: DU-4475
Description: SANGER: Inhibition of human DU-4475 cell growth in a cell viability assay.

TE-11 = test system: TE-11;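 further: growth inhibition of human TE-11 cells, read out by a cell viability assay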
Description: SANGER: Inhibition of human TE-11 cell growth in a cell viability assay.

MPP-89 = test system: MPP-89;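 further: growth inhibition of human MPP-89 cells, read out with a cell viability assay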
Description: SANGER: Inhibition of human MPP-89 cell growth in a cell viability assay.

ACN = test system: ACN;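 further: growth inhibition of the human ACN cell line, read out via cell viability testing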
Description: SANGER: Inhibition of human ACN cell growth in a cell viability assay.

ES7 = test system: ES7;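 further: growth inhibition of cultured human ES7 cells, read out as cell viability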
Description: SANGER: Inhibition of human ES7 cell growth in a cell viability assay.

PSN1 = test system: PSN1;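 further: suppression of growth of human PSN1 cells, read out by a cell viability assay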
Description: SANGER: Inhibition of human PSN1 cell growth in a cell viability assay.

NCI-H446 = test system: NCI-H446;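 further: growth inhibition of NCI-H446 cells determined by a cell viability assay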
Description: SANGER: Inhibition of human NCI-H446 cell growth in a cell viability assay.

LXF-289 cell line = test system: LXF-289 cell line
Description: SANGER: Inhibition of human LXF-289 cell growth in a cell viability assay.

NCI-H2126 = test system: NCI-H2126;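 further: growth inhibition of the cancer cell line, determined with a cell viability readout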
Description: SANGER: Inhibition of human NCI-H2126 cell growth in a cell viability assay.

HCC2218 = test system: HCC2218;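 further: cell viability assay read-out, with IC50 given as the concentration that inhibits growth of the cell line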
Description: SANGER: Inhibition of human HCC2218 cell growth in a cell viability assay.

SCH = test system: SCH;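 further: growth inhibition of human SCH cells, read out in a cell viability assay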
Description: SANGER: Inhibition of human SCH cell growth in a cell viability assay.

NCI-H226 = test system: NCI-H226;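 further: cell viability read-out used to gauge growth inhibition of the cells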
Description: SANGER: Inhibition of human NCI-H226 cell growth in a cell viability assay.

SK-UT-1 = test system: SK-UT-1;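 further: growth inhibition of SK-UT-1 cells, measured by a cell viability assay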
Description: SANGER: Inhibition of human SK-UT-1 cell growth in a cell viability assay.

MFH-ino = test system: MFH-ino;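 further: growth inhibition of human MFH-ino cells, read out by a cell viability assay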
Description: SANGER: Inhibition of human MFH-ino cell growth in a cell viability assay.

COLO-824 = test system: COLO-824
Description: SANGER: Inhibition of human COLO-824 cell growth in a cell viability assay.

TE-5 = test system: TE-5;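 further: inhibition of cell growth, read out by a cell viability assay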
Description: SANGER: Inhibition of human TE-5 cell growth in a cell viability assay.

ETK-1 = test system: ETK-1;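 further: growth inhibition of human ETK-1 cells, read out with a cell viability assay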
Description: SANGER: Inhibition of human ETK-1 cell growth in a cell viability assay.

TE-1 = test system: TE-1;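 further: growth inhibition of the human TE-1 cell line, read out with a cell viability assay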
Description: SANGER: Inhibition of human TE-1 cell growth in a cell viability assay.

CTV-1 = test system: CTV-1;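 further: growth inhibition of the cell line, read out with a cell viability assay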
Description: SANGER: Inhibition of human CTV-1 cell growth in a cell viability assay.

DJM-1 = test system: DJM-1;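 further: growth inhibition of human DJM-1 cells, read out by a cell viability assay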
Description: SANGER: Inhibition of human DJM-1 cell growth in a cell viability assay.

SK-MEL-2 = test system: SK-MEL-2;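 further: growth inhibition of human SK-MEL-2 cells measured with a cell viability assay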
Description: SANGER: Inhibition of human SK-MEL-2 cell growth in a cell viability assay.

NCI-H82 = test system: NCI-H82;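 further: growth inhibition of NCI-H82 cells, measured with a cell viability readout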
Description: SANGER: Inhibition of human NCI-H82 cell growth in a cell viability assay.

COLO-800 = test system: COLO-800;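 further: growth inhibition of COLO-800 cells, read out with a cell viability assay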
Description: SANGER: Inhibition of human COLO-800 cell growth in a cell viability assay.

IST-MEL1 = test system: IST-MEL1;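 further: growth inhibition of the cell line, read out with a cell viability assay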
Description: SANGER: Inhibition of human IST-MEL1 cell growth in a cell viability assay.

RXF 393 = test system: RXF 393;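 further: growth inhibition of human RXF 393 cells, read out with a cell viability assay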
Description: SANGER: Inhibition of human RXF393 cell growth in a cell viability assay.

BB49-HNC = test system: BB49-HNC;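 further: cell viability assay read-out, reported as inhibition of BB49-HNC cell growth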
Description: SANGER: Inhibition of human BB49-HNC cell growth in a cell viability assay.

KGN = test system: KGN
Description: SANGER: Inhibition of human KGN cell growth in a cell viability assay.

NKM-1 = test system: NKM-1
Description: SANGER: Inhibition of human NKM-1 cell growth in a cell viability assay.

LB771-HNC = test system: LB771-HNC
Description: SANGER: Inhibition of human LB771-HNC cell growth in a cell viability assay.

CW-2 = test system: CW-2
Description: SANGER: Inhibition of human CW-2 cell growth in a cell viability assay.

LS-513 = test system: LS-513
Description: SANGER: Inhibition of human LS-513 cell growth in a cell viability assay.

NCI-H510A = test system: NCI-H510A
Description: SANGER: Inhibition of human NCI-H510A cell growth in a cell viability assay.

KARPAS-299 = test system: KARPAS-299
Description: SANGER: Inhibition of human KARPAS-299 cell growth in a cell viability assay.

For `CC(O)(CS(=O)(=O)c1ccc(F)cc1)C(=O)Nc1ccc(C#N)c(C(F)(F)F)c1` (configuration not stated) [BICALUTAMIDE], the pIC50 (BV-173) was less than 5.99, the pIC50 (COLO-829) was less than 5.99 and the pIC50 (SW872) was less than 5.99. For the same compound, the pIC50 (NOMO-1) was less than 5.99, the pIC50 (TGBC1TKB) was less than 5.99 and the pIC50 (ES5) was less than 5.99. For the same compound, the pIC50 (A3-KAW) was less than 5.99, the pIC50 (NOS-1) was less than 5.99 and the pIC50 (CTB-1) was less than 5.99. For the same compound, the pIC50 (SW684) was less than 5.99, the pIC50 (SW 954) was less than 5.99 and the pIC50 (NCI-H69) was less than 5.99. The pIC50 (NB6) was less than 5.99, the pIC50 (TE-8) was less than 5.99 and the pIC50 (MFM-223) was less than 5.99. The pIC50 (K562) was less than 5.99, the pIC50 (BE-13) was less than 5.99 and the pIC50 (D-502MG) was less than 5.99. It also gave a pIC50 (HT) of less than 5.99, a pIC50 (LC-2-ad) of less than 5.99 and a pIC50 (DMS-79) of less than 5.99. For the same compound, the pIC50 (TE-9) was less than 5.99, the pIC50 (A4-Fuk) was less than 5.99 and the pIC50 (KG-1) was less than 5.99. It also gave a pIC50 (VA-ES-BJ) of less than 5.99, a pIC50 (NCI-H1092) of less than 5.99 and a pIC50 (HAL-01) of less than 5.99. It also gave a pIC50 (LB2241-RCC) of less than 5.99, a pIC50 (EW-3) of less than 5.99 and a pIC50 (LOX IMVI) of less than 5.99. The pIC50 (no-10) was less than 5.99, the pIC50 (LU-139) was less than 5.99 and the pIC50 (OS-RC-2) was less than 5.99. The pIC50 (DU-4475) was less than 5.99, the pIC50 (TE-11) was less than 5.99 and the pIC50 (MPP-89) was less than 5.99. It also gave a pIC50 (ACN) of less than 5.99, a pIC50 (ES7) of less than 5.99 and a pIC50 (PSN1) of less than 5.99. The pIC50 (NCI-H446) was less than 5.99, the pIC50 (LXF-289 cell line) was less than 5.99 and the pIC50 (NCI-H2126) was less than 5.99. The pIC50 (HCC2218) was less than 5.99, the pIC50 (SCH) was less than 5.99 and the pIC50 (NCI-H226) was less than 5.99. It also gave a pIC50 (SK-UT-1) of less than 5.99, a pIC50 (MFH-ino) of less than 5.99 and a pIC50 (COLO-824) of less than 5.99. For the same compound, the pIC50 (TE-5) was less than 5.99, the pIC50 (ETK-1) was less than 5.99 and the pIC50 (TE-1) was less than 5.99. For the same compound, the pIC50 (CTV-1) was less than 5.99, the pIC50 (DJM-1) was less than 5.99 and the pIC50 (SK-MEL-2) was less than 5.99. The pIC50 (NCI-H82) was less than 5.99, the pIC50 (COLO-800) was less than 5.99 and the pIC50 (IST-MEL1) was less than 5.99. The pIC50 (RXF 393) was less than 5.99, the pIC50 (BB49-HNC) was less than 5.99 and the pIC50 (KGN) was less than 5.99. It also gave a pIC50 (NKM-1) of less than 5.99, a pIC50 (LB771-HNC) of less than 5.99 and a pIC50 (CW-2) of less than 5.99. For the same compound, the pIC50 (LS-513) was less than 5.99, the pIC50 (NCI-H510A) was less than 5.99 and the pIC50 (KARPAS-299) was less than 5.99.

Work on `COc1cc(C)c(Sc2cnc(NC(=O)c3ccc(CNC(C)C(C)(C)C)cc3)s2)cc1C(=O)N1CCN(C(C)=O)CC1` (configuration not stated) yielded a pIC50 (BV-173) of less than 4.99, a pIC50 (COLO-829) of less than 4.99 and a pIC50 (SW872) of less than 4.99. For the same compound, the pIC50 (NOMO-1) was less than 4.99, the pIC50 (TGBC1TKB) was less than 4.99 and the pIC50 (ES5) was less than 4.99. For the same compound, the pIC50 (A3-KAW) was less than 4.99, the pIC50 (NOS-1) was 5.89 and the pIC50 (CTB-1) was less than 4.99. For the same compound, the pIC50 (SW684) was less than 4.99, the pIC50 (SW 954) was 5.11 and the pIC50 (NCI-H69) was less than 4.99. It also gave a pIC50 (NB6) of less than 4.99, a pIC50 (TE-8) of 5.19 and a pIC50 (MFM-223) of less than 4.99. It also gave a pIC50 (K562) of less than 4.99, a pIC50 (BE-13) of less than 4.99 and a pIC50 (D-502MG) of less than 4.99. For the same compound, the pIC50 (HT) was less than 4.99, the pIC50 (LC-2-ad) was 5.03 and the pIC50 (DMS-79) was less than 4.99. For the same compound, the pIC50 (TE-9) was less than 4.99, the pIC50 (A4-Fuk) was 5.79 and the pIC50 (KG-1) was less than 4.99. The pIC50 (VA-ES-BJ) was less than 4.99, the pIC50 (NCI-H1092) was less than 4.99 and the pIC50 (HAL-01) was less than 4.99. It also gave a pIC50 (LB2241-RCC) of less than 4.99, a pIC50 (EW-3) of 5.07 and a pIC50 (LOX IMVI) of less than 4.99. The pIC50 (no-10) was less than 4.99, the pIC50 (LU-139) was less than 4.99 and the pIC50 (OS-RC-2) was 5.05. It also gave a pIC50 (DU-4475) of less than 4.99, a pIC50 (TE-11) of less than 4.99 and a pIC50 (MPP-89) of less than 4.99. For the same compound, the pIC50 (ACN) was less than 4.99, the pIC50 (ES7) was less than 4.99 and the pIC50 (PSN1) was 5.60. It also gave a pIC50 (NCI-H446) of less than 4.99, a pIC50 (LXF-289 cell line) of 5.04 and a pIC50 (NCI-H2126) of less than 4.99. For the same compound, the pIC50 (HCC2218) was less than 4.99, the pIC50 (SCH) was less than 4.99 and the pIC50 (NCI-H226) was less than 4.99. It also gave a pIC50 (SK-UT-1) of less than 4.99, a pIC50 (MFH-ino) of 5.45 and a pIC50 (COLO-824) of less than 4.99. It also gave a pIC50 (TE-5) of less than 4.99, a pIC50 (ETK-1) of 5.65 and a pIC50 (TE-1) of less than 4.99. For the same compound, the pIC50 (CTV-1) was 5.20, the pIC50 (DJM-1) was less than 4.99 and the pIC50 (SK-MEL-2) was less than 4.99. The pIC50 (NCI-H82) was less than 4.99, the pIC50 (COLO-800) was less than 4.99 and the pIC50 (IST-MEL1) was less than 4.99. For the same compound, the pIC50 (RXF 393) was less than 4.99, the pIC50 (BB49-HNC) was less than 4.99 and the pIC50 (KGN) was less than 4.99. For the same compound, the pIC50 (NKM-1) was 5.00, the pIC50 (LB771-HNC) was less than 4.99 and the pIC50 (CW-2) was less than 4.99. The pIC50 (LS-513) was less than 4.99, the pIC50 (NCI-H510A) was less than 4.99 and the pIC50 (KARPAS-299) was less than 4.99.
